# Experimental data: ChEMBL document CHEMBL4680227, “Design and synthesis of selective degraders of EGFR mutant” (Eur J Med Chem, 2020)
# What was measured:
# [1] = molecular target: von Hippel-Lindau disease tumor suppressor/Epidermal growth factor receptor (Homo sapiens, UniProt P00533+P40337); experiment: Protac activity at VHL/EGFR in human A431 cells assessed as EGFR degradation by Western blot analysis; format: cell-based; details: a-431
# [2] = molecular target: Baculoviral IAP repeat-containing protein 2/Epidermal growth factor receptor (Homo sapiens, UniProt P00533+Q13490); experiment: Protac activity at cIAP1/EGFR in human A431 cells assessed as EGFR degradation by Western blot analysis; format: cell-based; details: a-431
# [3] = molecular target: E3 ubiquitin-protein ligase Mdm2/Epidermal growth factor receptor (Homo sapiens, UniProt Q00987+P00533); experiment: Protac activity at MDM2/EGFR in human A431 cells assessed as EGFR degradation by Western blot analysis; format: cell-based; details: a-431
# E3 ubiquitin-protein ligase Mdm2/Epidermal growth factor receptor (Homo sapiens, UniProt Q00987+P00533), sequence (Q00987 whole entry): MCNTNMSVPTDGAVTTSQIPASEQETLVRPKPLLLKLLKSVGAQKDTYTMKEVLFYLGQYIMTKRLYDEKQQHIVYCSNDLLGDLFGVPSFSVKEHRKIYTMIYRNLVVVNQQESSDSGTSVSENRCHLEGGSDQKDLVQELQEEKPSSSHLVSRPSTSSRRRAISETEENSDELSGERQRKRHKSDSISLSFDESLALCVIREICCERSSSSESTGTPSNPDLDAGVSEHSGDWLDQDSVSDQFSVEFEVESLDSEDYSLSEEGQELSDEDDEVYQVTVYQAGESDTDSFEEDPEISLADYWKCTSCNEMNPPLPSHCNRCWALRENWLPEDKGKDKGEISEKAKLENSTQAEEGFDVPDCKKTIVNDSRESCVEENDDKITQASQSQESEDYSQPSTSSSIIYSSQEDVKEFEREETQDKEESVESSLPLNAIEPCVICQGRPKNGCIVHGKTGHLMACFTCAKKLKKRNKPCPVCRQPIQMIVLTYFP
# E3 ubiquitin-protein ligase Mdm2/Epidermal growth factor receptor (Homo sapiens, UniProt Q00987+P00533), sequence (P00533 whole entry): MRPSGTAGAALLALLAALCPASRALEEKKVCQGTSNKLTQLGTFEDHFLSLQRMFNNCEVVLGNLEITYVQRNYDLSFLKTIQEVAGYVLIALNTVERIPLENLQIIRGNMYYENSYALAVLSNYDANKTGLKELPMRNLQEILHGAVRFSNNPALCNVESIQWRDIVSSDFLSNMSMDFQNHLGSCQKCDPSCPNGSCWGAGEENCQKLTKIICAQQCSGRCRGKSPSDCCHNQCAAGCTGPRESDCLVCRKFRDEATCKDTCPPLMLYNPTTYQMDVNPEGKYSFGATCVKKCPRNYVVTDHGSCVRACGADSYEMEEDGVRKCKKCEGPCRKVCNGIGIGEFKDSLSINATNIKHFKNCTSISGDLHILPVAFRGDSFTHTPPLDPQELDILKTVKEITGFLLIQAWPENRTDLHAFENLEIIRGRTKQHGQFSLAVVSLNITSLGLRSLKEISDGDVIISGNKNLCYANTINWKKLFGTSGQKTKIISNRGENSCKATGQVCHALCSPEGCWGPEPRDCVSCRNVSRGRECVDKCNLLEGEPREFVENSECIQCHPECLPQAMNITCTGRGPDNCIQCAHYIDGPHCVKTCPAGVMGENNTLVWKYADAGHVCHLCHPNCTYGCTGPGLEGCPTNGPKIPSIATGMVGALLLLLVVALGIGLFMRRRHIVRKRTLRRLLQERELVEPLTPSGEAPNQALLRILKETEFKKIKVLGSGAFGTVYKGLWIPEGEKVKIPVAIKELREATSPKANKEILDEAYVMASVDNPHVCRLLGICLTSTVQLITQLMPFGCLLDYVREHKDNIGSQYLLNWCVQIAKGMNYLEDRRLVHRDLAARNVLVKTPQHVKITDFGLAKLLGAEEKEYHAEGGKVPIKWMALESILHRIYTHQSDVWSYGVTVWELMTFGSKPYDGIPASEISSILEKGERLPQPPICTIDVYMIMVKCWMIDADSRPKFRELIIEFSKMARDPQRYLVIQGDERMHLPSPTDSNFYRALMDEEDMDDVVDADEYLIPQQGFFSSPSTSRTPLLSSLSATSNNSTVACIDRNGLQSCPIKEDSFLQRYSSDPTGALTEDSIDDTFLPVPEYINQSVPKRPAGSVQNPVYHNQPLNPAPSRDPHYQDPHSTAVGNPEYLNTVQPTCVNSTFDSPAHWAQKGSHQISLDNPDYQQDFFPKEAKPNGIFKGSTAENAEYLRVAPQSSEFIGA
# [4] = molecular target: E3 ubiquitin-protein ligase Mdm2/Epidermal growth factor receptor (Homo sapiens, UniProt Q00987+P00533, T790M/L858M); experiment: (§1) Protac activity at MDM2/EGFR L858R/T790M mutant in human NCI-H1975 cells assessed as EGFR degradation by Western blot analysis; format: cell-based
# [5] = molecular target: von Hippel-Lindau disease tumor suppressor/Epidermal growth factor receptor (Homo sapiens, UniProt P00533+P40337, T790M/L858R); experiment: Protac activity at VHL/EGFR L858R/T790M mutant in human NCI-H1975 cells assessed as EGFR degradation by Western blot analysis; format: cell-based
# von Hippel-Lindau disease tumor suppressor/Epidermal growth factor receptor (Homo sapiens, UniProt P00533+P40337, T790M/L858R), sequence (P00533 whole entry, looked up, stated change not applied): as the sequence (P00533 whole entry) above
# von Hippel-Lindau disease tumor suppressor/Epidermal growth factor receptor (Homo sapiens, UniProt P00533+P40337, T790M/L858R), sequence (P40337 whole entry, looked up, stated change not applied): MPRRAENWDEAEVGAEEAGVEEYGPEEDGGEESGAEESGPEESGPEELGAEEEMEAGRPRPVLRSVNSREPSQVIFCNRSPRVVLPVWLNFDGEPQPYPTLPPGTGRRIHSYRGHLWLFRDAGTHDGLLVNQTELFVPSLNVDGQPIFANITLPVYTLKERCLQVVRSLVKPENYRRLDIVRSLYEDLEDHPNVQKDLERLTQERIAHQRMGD
# [6] = molecular target: Epidermal growth factor receptor (Homo sapiens, UniProt P00533, T790M/L858R); experiment: Induction of EGFR L858R/T790M mutant degradation in human NCI-H1975 cells by Western blot analysis
# [7] = molecular target: Epidermal growth factor receptor (Homo sapiens, UniProt P00533); experiment: Induction of EGFR degradation in human A431 cells by Western blot analysis; details: a-431
# [8] = system: E3 ubiquitin-protein ligase Mdm2/Epidermal growth factor receptor (Homo sapiens), Q00987+P00533 [T790M,L858M]; experiment: as §1; format: cell-based
# von Hippel-Lindau disease tumor suppressor/Epidermal growth factor receptor (Homo sapiens, UniProt P00533+P40337), sequence (P00533 whole entry): as the sequence (P00533 whole entry) above
# von Hippel-Lindau disease tumor suppressor/Epidermal growth factor receptor (Homo sapiens, UniProt P00533+P40337), sequence (P40337 whole entry): as the sequence (P40337 whole entry, looked up, stated change not applied) above
smiles,measurement,setting,value
C=CC(=O)Nc1cccc(-n2c(=O)cc(C)c3cnc(Nc4ccc(N5CCN(C(=O)CCCCC(=O)N[C@H](C(=O)N6C[C@H](O)C[C@H]6C(=O)NCc6ccc(-c7scnc7C)cc6)C(C)(C)C)CC5)cc4OC)nc32)c1,DC50,[1],> 2000 nM
C=CC(=O)Nc1cccc(-n2c(=O)cc(C)c3cnc(Nc4ccc(N5CCN(C(=O)CCCCCCCCCCCNC(=O)[C@H](CC(C)C)NC(=O)[C@@H](O)[C@H](N)Cc6ccccc6)CC5)cc4OC)nc32)c1,DC50,[2],> 2000 nM
C=CC(=O)Nc1cccc(-n2c(=O)cc(C)c3cnc(Nc4ccc(N5CCN(C(=O)CCCCCCCCCNC(=O)c6ccc(NC(=O)[C@@H]7N[C@@H](CC(C)(C)C)[C@](C#N)(c8ccc(Cl)cc8F)[C@H]7c7cccc(Cl)c7F)c(OC)c6)CC5)cc4OC)nc32)c1,DC50,[3],> 2000 nM
same,DC50,[4],313 nM
C=CC(=O)Nc1cccc(-n2c(=O)cc(C)c3cnc(Nc4ccc(N5CCN(CCCCCCCCCCCC(=O)N[C@H](C(=O)N6C[C@H](O)C[C@H]6C(=O)NCc6ccc(-c7scnc7C)cc6)C(C)(C)C)CC5)cc4OC)nc32)c1,DC50,[1],50.3 nM
same,DC50,[5],> 2000 nM
C=CC(=O)Nc1cccc(-n2c(=O)cc(C)c3cnc(Nc4ccc(N5CCN(C(=O)CCCCCCC(=O)N[C@H](C(=O)N6C[C@H](O)C[C@H]6C(=O)NCc6ccc(-c7scnc7C)cc6)C(C)(C)C)CC5)cc4OC)nc32)c1,DC50,[1],> 2000 nM
same,DC50,[5],235 nM
C=CC(=O)Nc1cccc(-n2c(=O)cc(C)c3cnc(Nc4ccc(N5CCN(CCCCCCCCCCCCNC(=O)c6ccc(NC(=O)[C@@H]7N[C@@H](CC(C)(C)C)[C@](C#N)(c8ccc(Cl)cc8F)[C@H]7c7cccc(Cl)c7F)c(OC)c6)CC5)cc4OC)nc32)c1,DC50,[3],> 2000 nM
C=CC(=O)Nc1cccc(-n2c(=O)cc(C)c3cnc(Nc4ccc(N5CCN(C)CC5)cc4OC)nc32)c1,DC50,[6],> 2000 nM
same,DC50,[7],> 2000 nM
C=CC(=O)Nc1cccc(-n2c(=O)cc(C)c3cnc(Nc4ccc(N5CCN(C(=O)CCCCCCCCCCCNC(=O)c6ccc(NC(=O)[C@@H]7N[C@@H](CC(C)(C)C)[C@](C#N)(c8ccc(Cl)cc8F)[C@H]7c7cccc(Cl)c7F)c(OC)c6)CC5)cc4OC)nc32)c1,DC50,[3],> 2000 nM
same,Activity,[8],Dose-dependent effect
same,DC50,[4],264 nM
C=CC(=O)Nc1cccc(-n2c(=O)cc(C)c3cnc(Nc4ccc(N5CCN(CCCCCCCC(=O)N[C@H](C(=O)N6C[C@H](O)C[C@H]6C(=O)NCc6ccc(-c7scnc7C)cc6)C(C)(C)C)CC5)cc4OC)nc32)c1,DC50,[1],> 2000 nM
same,DC50,[5],466 nM
